Columns and labels:
[1] = system: leafy spurge; experiment: Test F preemergence; format: in vivo, Euphorbia esula; details: 21 days, scale 0 to 100
Excerpt: (§1) Seeds of plant species selected from bermudagrass (Cynodon dactylon), surinam grass (Brachiaria decumbens), large (Lg) crabgrass (Digitaria sanguinalis), crabgrass, naked (naked crabgrass, Digitaria nuda), foxtail, green (green foxtail, Setaria viridis), johnsongrass (Sorghum halepense), kochia (Kochia scoparia), morningglory (pitted morningglory, Ipomoea lacunosa), nutsedge, purple (purple nutsedge, Cyperus rotundus), ragweed (common ragweed, Ambrosia elatior), mustard, black (black mustard, Brassica nigra), guineagrass (Panicum maximum), dallisgrass (Paspalum dilatatum), barnyardgrass (Echinochloa crus-galli), sandbur (southern sandbur, Cenchrus echinatus), sowthistle (common sowthistle, Sonchus oleraceous), Italian ryegrass (Lolium multiflorum), signalgrass (broadleaf signalgrass, Brachiaria platyphylla), dayflower (Virginia (VA) dayflower, Commelina virginica), bluegrass (annual bluegrass, Poa annua), quackgrass (Elytrigia repens), mallow (common mallow, Malva sylvestris), buckwheat, wild (wild buckwheat, Polygonum convolvulus), leafy spurge (Euphorbia esula), chickweed (common chickweed, Stellaria media), wild poinsettia (Euphorbia heterophylla), and pigweed (Amaranthus retroflexus) were planted into a blend of loam soil and sand and treated preemergence with test chemicals formulated in a non-phytotoxic solvent mixture which included a surfactant.
(§2) Treated plants and controls were maintained in a greenhouse for 21 days, after which time all species were compared to controls and visually evaluated. Plant response ratings, summarized in Table F, are based on a scale of 0 to 100 where 0 is no effect and 100 is complete control. A dash (-) response means no test result.

[2] = system: ragweed; experiment: Test F preemergence; format: in vivo, Ambrosia elatior; details: 21 days, scale 0 to 100
Excerpt: as §1, §2

[3] = system: lambsquarters; experiment: Test D preemergence; format: in vivo, Chenopodium album
Excerpt: (§3) Seeds of plant species selected from bluegrass (annual bluegrass, Poa annua), blackgrass (Alopecurus myosuroides), canarygrass (littleseed canarygrass, Phalaris minor), chickweed (common chickweed, Stellaria media), galium (catchweed bedstraw, Galium aparine), bromegrass, downy (downy bromegrass, Bromus tectorum), field poppy (Papaver rhoeas), field violet (Viola arvensis), green foxtail (Setaria viridis), deadnettle (henbit deadnettle, Lamium amplexicaule), Italian ryegrass (Lolium multiflorum), kochia (Kochia scoparia), lambsquarters (Chenopodium album), oilseed rape (Brassica napus), pigweed (Amaranthus retroflexus), chamomile (scentless chamomile, Matricaria inodora), Russian thistle (Salsola kali), speedwell (bird's-eye speedwell, Veronica persica), spring barley (Hordeum vulgare), spring wheat (Triticum aestivum), wild buckwheat (Polygonum convolvulus), wild mustard (Sinapis arvensis), wild oat (Avena fatua), wild radish (Raphanus raphanistrum), windgrass (Apera spica-venti), winter barley (Hordeum vulgare), and winter wheat (Triticum aestivum) were planted into a silt loam soil and treated preemergence with test chemicals formulated in a non-phytotoxic solvent mixture which included a surfactant.
(§4) At the same time, these species were planted in pots containing Redi-Earth® planting medium (Scotts Company, 14111 Scottslawn Road, Marysville, Ohio 43041) comprising spaghnum peat moss, vermiculite, wetting agent and starter nutrients and treated with postemergence applications of the test chemicals formulated in the same manner. Plants ranged in height from 2 to 18 cm (1- to 4-leaf stage). Treated plants and controls were maintained in a controlled growth environment for 7 to 21 days after which time all species were compared to controls and visually evaluated. Plant response ratings, summarized in Table D, are based on a scale of 0 to 100 where 0 is no effect and 100 is complete control. A dash (-) response means no test result.

[4] = system: field violet; experiment: Test D postemergence; format: in vivo, Viola arvensis
Excerpt: as §3, §4

[5] = system: chickweed; experiment: Test D postemergence; format: in vivo, Stellaria media
Excerpt: as §3, §4

[6] = system: oilseed rape; experiment: Test D postemergence; format: in vivo, Brassica napus
Excerpt: as §3, §4

[7] = system: pigweed; experiment: Test D postemergence; format: in vivo, Amaranthus retroflexus
Excerpt: as §3, §4

[8] = system: kochia; experiment: Test D postemergence; format: in vivo, Kochia scoparia
Excerpt: as §3, §4

[9] = 31 g ai/ha, scale 0 to 100 (0 no effect, 100 complete control)
[10] = 62 g ai/ha, scale 0 to 100 (0 no effect, 100 complete control)
[11] = 125 g ai/ha, scale 0 to 100 (0 no effect, 100 complete control)

Question: For `N#Cc1cccc(Oc2ncc(Cl)cn2)c1-n1cc(OC(F)F)cn1` [Compound 97], which “Plant response rating, Leafy Spurge” value ([1]; 16 g ai/ha) is on record?
Answer: 98

Question: And the “Plant response rating, Leafy Spurge” value ([1]; 31 g ai/ha)?
Answer: 98

Question: And the “Plant response rating, Leafy Spurge” value ([1]; 62 g ai/ha)?
Answer: 100

Question: What about the “Plant response rating, Leafy Spurge” value ([1]; 125 g ai/ha) of the same compound?
Answer: 100

Question: What about the “Plant response rating, Leafy Spurge” value ([1]; 250 g ai/ha) of the same compound?
Answer: 100

Question: And the “Plant response rating, Ragweed” value ([2]; 16 g ai/ha)?
Answer: 10

Question: And the “Plant response rating, Ragweed” value ([2]; 31 g ai/ha)?
Answer: 75

Question: What about the “Plant response rating, Ragweed” value ([2]; 62 g ai/ha) of the same compound?
Answer: 85

Question: What about the “Plant response rating, Ragweed” value ([2]; 125 g ai/ha) of the same compound?
Answer: 95

Question: What about the “Plant response rating, Ragweed” value ([2]; 250 g ai/ha) of the same compound?
Answer: 100

Question: What does the source list for `FCc1cccc(Oc2ncc(Cl)cn2)c1-n1cc(I)cn1` [Compound 245]?
Answer: Plant response rating, Lambsquarters ([3]; 16 g ai/ha, scale 0 (no effect) to 100 (complete control)): 85; Plant response rating, Lambsquarters ([3]; 31 g ai/ha, scale 0-100): 100; Plant response rating, Lambsquarters ([3]; 62 g ai/ha, scale 0-100): 100; Plant response rating, Lambsquarters ([3]; 125 g ai/ha, scale 0-100): 100; Plant response rating, Field Violet ([4]; 16 g ai/ha, scale 0-100): 25; Plant response rating, Field Violet [4, 9]: 80; Plant response rating, Field Violet [4, 10]: 90; Plant response rating, Field Violet [4, 11]: 90; Plant response rating, Chickweed ([5]; 16 g ai/ha, scale 0-100): 45; Plant response rating, Chickweed [5, 9]: 75; Plant response rating, Chickweed [5, 10]: 95; Plant response rating, Chickweed [5, 11]: 98; Plant response rating, Oilseed Rape ([6]; 16 g ai/ha, scale 0-100): 30; Plant response rating, Oilseed Rape [6, 9]: 45; Plant response rating, Oilseed Rape [6, 10]: 60; Plant response rating, Oilseed Rape [6, 11]: 75; Plant response rating, Pigweed ([7]; 16 g ai/ha, scale 0-100): 95; Plant response rating, Pigweed [7, 9]: 95; Plant response rating, Pigweed [7, 10]: 100; Plant response rating, Pigweed [7, 11]: 100; Plant response rating, Kochia ([8]; 16 g ai/ha, scale 0-100): 25; Plant response rating, Kochia [8, 9]: 70; Plant response rating, Kochia [8, 10]: 90; Plant response rating, Kochia [8, 11]: 90

Question: Which pest or weed control at 16 g/ha ([3]; Chenopodium album, pre-emergence, 16 g ai/ha, scale 0 (no effect) to 100 (complete control), read-out: Plant response rating, Lambsquarters) does the source give for `Fc1cccc(Oc2ncc(Cl)cn2)c1-n1cc(C(F)F)nn1` [Compound 141, 5-chloro-2-[2-[4-(difluoromethyl)-1H-1,2,3-triazol-1-yl]-3-fluorophenoxy]pyrimidine] here?
Answer: 100%

Question: What about the pest or weed control at 31 g/ha ([3]; Chenopodium album, pre-emergence, 31 g ai/ha, scale 0-100, read-out: Plant response rating, Lambsquarters) of the same compound?
Answer: 100%

Question: And the pest or weed control at 62 g/ha ([3]; Chenopodium album, pre-emergence, 62 g ai/ha, scale 0-100, read-out: Plant response rating, Lambsquarters)?
Answer: 100%

Question: What about the pest or weed control at 125 g/ha ([3]; Chenopodium album, pre-emergence, 125 g ai/ha, scale 0-100, read-out: Plant response rating, Lambsquarters) of the same compound?
Answer: 100%

Question: And the pest or weed control at 16 g/ha ([4]; Viola arvensis, post-emergence, 16 g ai/ha, scale 0-100, read-out: Plant response rating, Field Violet)?
Answer: 45%

Question: What about the pest or weed control at 31 g/ha ([4]; Viola arvensis, post-emergence, 31 g ai/ha, scale 0 to 100 (0 no effect, 100 complete control), read-out: Plant response rating, Field Violet) of the same compound?
Answer: 75%

Question: And the pest or weed control at 62 g/ha ([4]; Viola arvensis, post-emergence, 62 g ai/ha, scale 0 to 100 (0 no effect, 100 complete control), read-out: Plant response rating, Field Violet)?
Answer: 85%

Question: What about the pest or weed control at 125 g/ha ([4]; Viola arvensis, post-emergence, 125 g ai/ha, scale 0 to 100 (0 no effect, 100 complete control), read-out: Plant response rating, Field Violet) of the same compound?
Answer: 95%

Question: And the pest or weed control at 16 g/ha ([5]; Stellaria media, post-emergence, 16 g ai/ha, scale 0-100, read-out: Plant response rating, Chickweed)?
Answer: 70%

Question: And the pest or weed control at 31 g/ha ([5]; Stellaria media, post-emergence, 31 g ai/ha, scale 0 to 100 (0 no effect, 100 complete control), read-out: Plant response rating, Chickweed)?
Answer: 90%

Question: What about the pest or weed control at 62 g/ha ([5]; Stellaria media, post-emergence, 62 g ai/ha, scale 0 to 100 (0 no effect, 100 complete control), read-out: Plant response rating, Chickweed) of the same compound?
Answer: 95%

Question: And the pest or weed control at 125 g/ha ([5]; Stellaria media, post-emergence, 125 g ai/ha, scale 0 to 100 (0 no effect, 100 complete control), read-out: Plant response rating, Chickweed)?
Answer: 100%

Question: And the plant injury at 16 g/ha ([6]; Brassica napus, post-emergence, 16 g ai/ha, scale 0-100, read-out: Plant response rating, Oilseed Rape)?
Answer: 75%

Question: And the plant injury at 31 g/ha ([6]; Brassica napus, post-emergence, 31 g ai/ha, scale 0 to 100 (0 no effect, 100 complete control), read-out: Plant response rating, Oilseed Rape)?
Answer: 95%

Question: And the plant injury at 62 g/ha ([6]; Brassica napus, post-emergence, 62 g ai/ha, scale 0 to 100 (0 no effect, 100 complete control), read-out: Plant response rating, Oilseed Rape)?
Answer: 100%

Question: What about the plant injury at 125 g/ha ([6]; Brassica napus, post-emergence, 125 g ai/ha, scale 0 to 100 (0 no effect, 100 complete control), read-out: Plant response rating, Oilseed Rape) of the same compound?
Answer: 100%

Question: And the pest or weed control at 16 g/ha ([7]; Amaranthus retroflexus, post-emergence, 16 g ai/ha, scale 0-100, read-out: Plant response rating, Pigweed)?
Answer: 98%

Question: And the pest or weed control at 31 g/ha ([7]; Amaranthus retroflexus, post-emergence, 31 g ai/ha, scale 0 to 100 (0 no effect, 100 complete control), read-out: Plant response rating, Pigweed)?
Answer: 98%

Question: And the pest or weed control at 62 g/ha ([7]; Amaranthus retroflexus, post-emergence, 62 g ai/ha, scale 0 to 100 (0 no effect, 100 complete control), read-out: Plant response rating, Pigweed)?
Answer: 100%

Question: And the pest or weed control at 125 g/ha ([7]; Amaranthus retroflexus, post-emergence, 125 g ai/ha, scale 0 to 100 (0 no effect, 100 complete control), read-out: Plant response rating, Pigweed)?
Answer: 100%

Question: What about the pest or weed control at 16 g/ha ([8]; Bassia scoparia, post-emergence, 16 g ai/ha, scale 0-100, read-out: Plant response rating, Kochia) of the same compound?
Answer: 70%

Question: What about the pest or weed control at 31 g/ha ([8]; Bassia scoparia, post-emergence, 31 g ai/ha, scale 0 to 100 (0 no effect, 100 complete control), read-out: Plant response rating, Kochia) of the same compound?
Answer: 85%

Question: And the pest or weed control at 62 g/ha ([8]; Bassia scoparia, post-emergence, 62 g ai/ha, scale 0 to 100 (0 no effect, 100 complete control), read-out: Plant response rating, Kochia)?
Answer: 100%

Question: And the pest or weed control at 125 g/ha ([8]; Bassia scoparia, post-emergence, 125 g ai/ha, scale 0 to 100 (0 no effect, 100 complete control), read-out: Plant response rating, Kochia)?
Answer: 100%

— patent US9695155B2, “Herbicidal substituted pyrimidinyloxy benzene compounds” (E. I. DU PONT DE NEMOURS AND COMPANY, priority 2013, dated 2017)
